Where two headings read alike, the source gives them in different places.
Experiments:
HDAC5 = molecular target: T1, HDAC5 (Homo sapiens, UniProt Q9UQL6); experiment: HDAC5 enzyme inhibition (Lys-Ac-AMC); assay type: biochemical; settings: Table 4, graded
T1 construct: purchased BPS Bioscience 50005
Procedure: (§1) Determining the inhibition capability of HDAC through the substrate method of fluorophore coupled acetylized peptide fragment (Lys-Ac-AMC). HDAC2-11 proteins of subtypes are purchased from BPS Bioscience Company with the Art. […] The reaction buffer system is a modified Tris buffer (pH7.0). The small molecule compounds are prepared and dissolved with 100% DMSO. […] Adding the compound into the reaction wells of the 384 well plate at the designed concentration, then adding 15 μL HDAC enzyme solution into the reaction wells (adding 15 μL blank buffer into the control well 0) for incubation under ambient temperature for 15 min; then adding 10 μL substrate solution to start reaction.
(§2) Analyzing the result data with the software GraphPad Prism and calculating the value of IC50 as per the formula: Y=background data+(top data−background data)/(1+10^((Log IC50−X)*rate of curve)). Where, Y refers to the inhibition ratio (%) and X refers to the compound concentration.

HDAC2 = molecular target: T2, HDAC2 (Homo sapiens, UniProt Q92769); experiment: HDAC2 enzyme inhibition (Lys-Ac-AMC); assay type: biochemical; settings: Table 4, graded
T2 construct: purchased BPS Bioscience 50002
Procedure: as §1, §2

[1] = test system: RPMI-8226 cells (multiple myeloma); experiment: Proliferation inhibition, RPMI-8226 (cck-8); assay type: cell-based; settings: Homo sapiens, 96 h incubation
From the text: (§3) Calculating the value of IC50 as per the formula: Y=background data+(top data−background data)/(1+10^((Log IC50−X)*rate of curve)). Where, Y refers to the inhibition ratio (%) and X refers to the compound concentration.

HDAC1 = molecular target: T3, HDAC1 (Homo sapiens, UniProt Q13547); experiment: In vitro HDAC1 enzymatic activity inhibition (Lys-Ac-AMC substrate); assay type: biochemical
T3 construct: purchased BPS Bioscience
Procedure, shortened: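 Fluorogenic Lys-Ac-AMC deacetylation with trypsin development in modified Tris buffer pH 7.0; compound preincubated with enzyme 15 min at ambient temperature before substrate addition. Final HDAC1 6 nM, trypsin 0.05 μM, Ac-peptide 8 μM. IC50 from four-parameter fit of % inhibition versus concentration.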

[2] = test system: MM1S cells (multiple myeloma); experiment: Proliferation inhibition, MM1S (cck-8); assay type: cell-based; settings: Homo sapiens, MM1.S; 96 h incubation
From the text: as §3

HDAC7 = molecular target: T4, HDAC7 (Homo sapiens, UniProt Q8WUI4); experiment: HDAC7 enzyme inhibition (Lys-Ac-AMC); assay type: biochemical; settings: Table 4, graded
T4 construct: purchased BPS Bioscience 50007
T4 sequence (Q8WUI4 518-952 limits assumed): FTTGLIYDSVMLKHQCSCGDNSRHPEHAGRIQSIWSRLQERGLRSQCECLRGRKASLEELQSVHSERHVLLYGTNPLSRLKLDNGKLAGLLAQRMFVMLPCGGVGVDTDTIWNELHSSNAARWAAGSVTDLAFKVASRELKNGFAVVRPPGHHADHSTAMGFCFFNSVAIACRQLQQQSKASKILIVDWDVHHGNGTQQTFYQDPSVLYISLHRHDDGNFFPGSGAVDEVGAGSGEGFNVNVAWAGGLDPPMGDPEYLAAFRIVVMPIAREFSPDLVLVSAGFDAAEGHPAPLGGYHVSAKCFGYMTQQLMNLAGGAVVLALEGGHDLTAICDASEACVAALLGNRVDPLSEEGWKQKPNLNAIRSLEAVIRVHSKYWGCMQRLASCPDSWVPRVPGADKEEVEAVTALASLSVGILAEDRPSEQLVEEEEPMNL
Procedure: as §1, §2

[3] = test system: OCI-LY1 cells (B-cell lymphoma); experiment: Proliferation inhibition, OCI-LY1 (cck-8); assay type: cell-based; settings: Homo sapiens, 96 h incubation
From the text: as §3

HDAC11 = molecular target: T5, HDAC11 (Homo sapiens, UniProt Q96DB2); experiment: HDAC11 enzyme inhibition (Lys-Ac-AMC); assay type: biochemical; settings: Table 4, graded
T5 construct: purchased BPS Bioscience 50011
T5 sequence (Q96DB2 1-347): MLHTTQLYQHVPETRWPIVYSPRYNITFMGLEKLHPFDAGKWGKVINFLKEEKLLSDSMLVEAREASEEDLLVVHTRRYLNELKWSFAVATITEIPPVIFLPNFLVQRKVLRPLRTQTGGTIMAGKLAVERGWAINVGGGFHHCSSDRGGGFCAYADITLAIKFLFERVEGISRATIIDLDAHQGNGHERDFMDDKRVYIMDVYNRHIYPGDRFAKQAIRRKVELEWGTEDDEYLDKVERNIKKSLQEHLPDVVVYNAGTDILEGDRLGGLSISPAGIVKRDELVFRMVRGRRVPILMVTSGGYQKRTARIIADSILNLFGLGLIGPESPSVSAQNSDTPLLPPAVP
Procedure: as §1, §2

HDAC3 = molecular target: T6, HDAC3 (Homo sapiens, UniProt O15379); experiment: HDAC3 enzyme inhibition (Lys-Ac-AMC); assay type: biochemical; settings: Table 4, graded
T6 construct: purchased BPS Bioscience 50003
Procedure: as §1, §2

[4] = test system: MV4-11 subcutaneous tumor; settings: 10 mg/kg i.v., once per two days, 22 days
From the text: During drug administration, measuring the weight and gross tumor volume of the mice per 2 days and keeping a record. The calculation formula is as V=π/6×A^2×B, where, where, V=gross tumor volume (mm^3), A=tumor width (mm) and B=tumor length (mm). Observing and keeping a record for the survival condition of the tested animals. After drug discontinuance, killing the mice through cervical dislocation and peeling off their tumors as per the operation specification of animal experiment. Evaluating the inhibition capability of the compounds to tumor activities by calculating the tumor inhibitory rate with the formula as: tumor inhibitory rate=(1−tumor weight of treatment group/tumor weight of control group)×100%. Analyzing and comparing the difference between each treatment group and control group with the method of t-test. The grading of significance level of difference is: ***, P<0.001; **, P<0.01; *, P<0.05; no statistical significance (ns), P>0.05.

HDAC9 = molecular target: T7, HDAC9 (Homo sapiens, UniProt Q9UKV0); experiment: HDAC9 enzyme inhibition (Lys-Ac-AMC); assay type: biochemical; settings: Table 4, graded
T7 construct: purchased BPS Bioscience 50009
Procedure: as §1, §2

[5] = Table 1, graded, read-out: HDAC1 IC50
[6] = Table 4, graded, read-out: HDAC1 IC50
[7] = read-out: inhibition value IC50 to the activity of HDAC1

T6 sequence (O15379 whole entry, species assumed): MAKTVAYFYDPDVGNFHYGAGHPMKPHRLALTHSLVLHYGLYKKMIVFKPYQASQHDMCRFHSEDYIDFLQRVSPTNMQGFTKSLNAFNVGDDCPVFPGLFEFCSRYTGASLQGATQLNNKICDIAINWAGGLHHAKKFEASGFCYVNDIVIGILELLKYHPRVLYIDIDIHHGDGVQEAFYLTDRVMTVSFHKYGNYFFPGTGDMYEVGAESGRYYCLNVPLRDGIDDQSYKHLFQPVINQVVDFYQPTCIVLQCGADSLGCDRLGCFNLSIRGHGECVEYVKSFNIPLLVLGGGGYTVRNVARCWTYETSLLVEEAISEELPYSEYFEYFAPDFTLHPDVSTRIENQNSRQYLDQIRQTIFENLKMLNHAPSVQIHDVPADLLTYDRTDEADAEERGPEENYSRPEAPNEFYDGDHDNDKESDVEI
T6 sequence (Q9Y618 395-489 partner limits assumed, species assumed): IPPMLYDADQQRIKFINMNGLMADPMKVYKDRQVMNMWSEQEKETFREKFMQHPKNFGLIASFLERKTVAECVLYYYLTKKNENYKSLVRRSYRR
T3 sequence (Q13547 whole entry, species assumed): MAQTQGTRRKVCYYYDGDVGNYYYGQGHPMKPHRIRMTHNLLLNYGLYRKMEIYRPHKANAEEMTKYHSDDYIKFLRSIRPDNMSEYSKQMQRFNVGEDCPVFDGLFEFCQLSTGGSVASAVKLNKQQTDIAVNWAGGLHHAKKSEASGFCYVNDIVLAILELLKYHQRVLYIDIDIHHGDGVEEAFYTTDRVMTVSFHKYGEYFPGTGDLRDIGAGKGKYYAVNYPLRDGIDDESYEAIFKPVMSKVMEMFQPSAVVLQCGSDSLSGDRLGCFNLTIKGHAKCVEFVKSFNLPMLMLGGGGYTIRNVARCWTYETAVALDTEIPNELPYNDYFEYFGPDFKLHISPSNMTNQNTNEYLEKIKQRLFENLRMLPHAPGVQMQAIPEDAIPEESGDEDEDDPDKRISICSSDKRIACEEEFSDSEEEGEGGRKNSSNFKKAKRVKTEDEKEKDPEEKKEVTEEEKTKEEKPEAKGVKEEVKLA
T1 sequence (Q9UQL6 656-1122 limits assumed): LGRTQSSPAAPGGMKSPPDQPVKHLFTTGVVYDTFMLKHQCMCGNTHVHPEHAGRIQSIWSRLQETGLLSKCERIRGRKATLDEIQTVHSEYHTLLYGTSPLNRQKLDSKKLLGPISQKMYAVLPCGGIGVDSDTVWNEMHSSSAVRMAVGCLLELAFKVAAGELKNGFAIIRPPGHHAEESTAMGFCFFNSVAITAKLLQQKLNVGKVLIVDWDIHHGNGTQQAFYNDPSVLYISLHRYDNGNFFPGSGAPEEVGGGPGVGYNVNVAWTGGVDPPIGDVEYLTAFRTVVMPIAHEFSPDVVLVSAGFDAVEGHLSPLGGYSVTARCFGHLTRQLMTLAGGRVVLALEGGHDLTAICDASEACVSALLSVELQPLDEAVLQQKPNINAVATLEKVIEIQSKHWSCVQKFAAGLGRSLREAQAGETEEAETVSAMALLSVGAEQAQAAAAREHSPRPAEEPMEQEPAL
T7 sequence (Q9UKV0 1-1066 isoform Q9UKV0-5): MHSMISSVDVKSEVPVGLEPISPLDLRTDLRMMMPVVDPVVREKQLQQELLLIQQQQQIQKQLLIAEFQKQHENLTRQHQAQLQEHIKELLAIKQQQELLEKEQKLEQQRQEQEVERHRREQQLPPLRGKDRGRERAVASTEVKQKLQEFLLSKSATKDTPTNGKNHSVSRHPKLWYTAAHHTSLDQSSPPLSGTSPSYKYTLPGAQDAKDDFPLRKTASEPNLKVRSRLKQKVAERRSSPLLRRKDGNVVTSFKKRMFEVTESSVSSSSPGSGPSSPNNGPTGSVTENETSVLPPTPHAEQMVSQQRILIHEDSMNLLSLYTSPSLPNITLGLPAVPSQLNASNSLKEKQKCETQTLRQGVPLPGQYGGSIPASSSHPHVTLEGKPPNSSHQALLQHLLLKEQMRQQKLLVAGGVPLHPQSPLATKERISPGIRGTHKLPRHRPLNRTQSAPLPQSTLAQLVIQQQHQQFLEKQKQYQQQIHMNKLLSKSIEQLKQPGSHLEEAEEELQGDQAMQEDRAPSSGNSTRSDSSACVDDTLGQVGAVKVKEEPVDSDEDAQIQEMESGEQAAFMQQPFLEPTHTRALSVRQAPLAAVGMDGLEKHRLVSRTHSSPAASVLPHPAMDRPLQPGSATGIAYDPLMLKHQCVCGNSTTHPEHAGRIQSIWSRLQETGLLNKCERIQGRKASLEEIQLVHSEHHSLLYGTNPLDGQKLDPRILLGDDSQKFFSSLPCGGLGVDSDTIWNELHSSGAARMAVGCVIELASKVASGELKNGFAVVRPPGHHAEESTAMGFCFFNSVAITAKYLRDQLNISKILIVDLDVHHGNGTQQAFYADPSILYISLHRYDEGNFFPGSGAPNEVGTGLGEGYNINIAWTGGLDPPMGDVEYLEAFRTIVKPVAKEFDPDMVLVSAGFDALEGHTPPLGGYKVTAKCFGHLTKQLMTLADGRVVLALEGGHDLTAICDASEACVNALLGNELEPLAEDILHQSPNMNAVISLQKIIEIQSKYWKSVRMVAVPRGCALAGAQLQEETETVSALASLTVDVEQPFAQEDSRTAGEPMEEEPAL
T2 sequence (Q92769 whole entry, species assumed): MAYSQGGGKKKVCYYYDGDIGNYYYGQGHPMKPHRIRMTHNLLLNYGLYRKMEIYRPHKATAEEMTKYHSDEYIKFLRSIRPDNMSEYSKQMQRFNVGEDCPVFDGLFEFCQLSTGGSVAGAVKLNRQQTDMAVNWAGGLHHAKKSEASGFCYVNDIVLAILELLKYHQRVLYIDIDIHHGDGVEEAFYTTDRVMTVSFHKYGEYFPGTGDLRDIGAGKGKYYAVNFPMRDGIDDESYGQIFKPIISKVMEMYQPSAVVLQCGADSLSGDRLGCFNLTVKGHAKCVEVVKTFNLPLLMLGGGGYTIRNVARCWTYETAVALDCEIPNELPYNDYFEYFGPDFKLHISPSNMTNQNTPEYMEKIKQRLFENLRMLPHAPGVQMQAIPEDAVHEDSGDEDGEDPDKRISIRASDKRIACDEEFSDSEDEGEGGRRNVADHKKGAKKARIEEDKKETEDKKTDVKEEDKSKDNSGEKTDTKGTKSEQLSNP

SMILES | IC50 (HDAC5) | IC50 (HDAC2) | IC50 [1] | IC50 (HDAC1; [5]) | IC50 (HDAC1; [6]) | IC50 [2] | IC50 (HDAC7) | IC50 [3] | IC50 (HDAC11) | IC50 (HDAC3) | Final survival condition (survived individuals/total individuals) [4] | IC50 (HDAC9) | Tumor inhibitory rate (%) [4] | IC50 (HDAC1; [7])
COc1ccc(-c2nc(N3CCOCC3)c3nc(CN(C)c4ncc(C(=O)NO)cn4)n(C)c3n2)cn1 [CLJ-1, 2-(((2-(6-methoxypyridine-3-yl)-9-methyl-6-morpholine-9H-purine-8-yl))methyl(methyl)amino)-N-hydroxyl pyrimidine-5-formamide] | 1000 to 10000 nM | 1 to 100 nM | 1 to 10 nM | < 100 nM | 1 to 100 nM | 0.1 to 1 nM | 1000 to 10000 nM | 10 to 100 nM | 1000 to 10000 nM | 1 to 100 nM | 5/6 | 1000 to 10000 nM | – | –
CN(Cc1nc2c(N3CCOCC3)nc(-c3cnc(N)nc3)nc2n1C)c1ncc(C(=O)NO)cn1 [CLJ-11, 2-(((2-(2-aminopyrimidine-5-yl)-9-methyl-6-morpholine-9H-purine-8-yl))methyl(methyl)amino)-N-hydroxyl pyrimidine-5-formamide] | 100 to 1000 nM | 1 to 100 nM | 10 to 100 nM | < 100 nM | 1 to 100 nM | 1 to 10 nM | 100 to 1000 nM | 100 to 1000 nM | 1000 to 10000 nM | 1 to 100 nM | 4/6 | 1000 to 10000 nM | 45.1% | –
COc1ccc(-c2nc(N3CCOCC3)c3nc(CN(C)c4ncc(C(=O)NO)cn4)n(C)c3n2)cc1 [CLJ-29, 2-(((2-(4-methoxyphenyl)-9-methyl-6-morpholine-9H-purine-8-yl))methyl(methyl)amino)-N-hydroxyl pyrimidine-5-formamide] | 1000 to 10000 nM | 1 to 100 nM | 0.1 to 1 nM | < 1 nM | < 1 nM | 0.1 to 1 nM | 1000 to 10000 nM | 1 to 10 nM | 1000 to 10000 nM | 1 to 100 nM | 4/6 | 1000 to 10000 nM | – | < 1 nM
Cc1[nH]c2ccccc2c1CCNCc1ccc(/C=C/C(=O)NO)cc1 [LBH589, panobinostat, reference compound] | – | – | 1 to 10 nM | – | – | 1 to 10 nM | – | 10 to 100 nM | – | – | – | – | – | –
CN(Cc1nc2c(N3CCOCC3)nc(-c3ccc(N)cc3)nc2n1C)c1ncc(C(=O)NO)cn1 [CLJ-44] | 100 to 1000 nM | 1 to 100 nM | 0.1 to 1 nM | < 1 nM | < 1 nM | 1 to 10 nM | 1000 to 10000 nM | 10 to 100 nM | 1000 to 10000 nM | 1 to 100 nM | 6/6 | 1000 to 10000 nM | – | < 1 nM

Reference: patent publication US10227347B2, “Purinyl-N-hydroxyl pyrimidine formamide derivative, preparation methods and uses thereof” (Guizhou Bailing Group Pharmaceutical CO., LTD., priority 2015, dated 2019)
